A word on the inhibition: it is the relative decrease from the control value, in per cent. The term IC50 denotes the concentration at which inhibition is half-maximal. Usually % Inhibition stands for the relative decrease from the control value, in per cent.

Results on 8 compounds are retold here after patent US7108997B2, “Assay for detecting inhibitors of the enzyme myeloperoxidase” (AstraZeneca AB, priority 2001, dated 2006).

Type in all cases: biochemical
Assay [1] deals with T1, purified human myeloperoxidase (Homo sapiens, UniProt P05164).
T1 sequence (P05164 49-745): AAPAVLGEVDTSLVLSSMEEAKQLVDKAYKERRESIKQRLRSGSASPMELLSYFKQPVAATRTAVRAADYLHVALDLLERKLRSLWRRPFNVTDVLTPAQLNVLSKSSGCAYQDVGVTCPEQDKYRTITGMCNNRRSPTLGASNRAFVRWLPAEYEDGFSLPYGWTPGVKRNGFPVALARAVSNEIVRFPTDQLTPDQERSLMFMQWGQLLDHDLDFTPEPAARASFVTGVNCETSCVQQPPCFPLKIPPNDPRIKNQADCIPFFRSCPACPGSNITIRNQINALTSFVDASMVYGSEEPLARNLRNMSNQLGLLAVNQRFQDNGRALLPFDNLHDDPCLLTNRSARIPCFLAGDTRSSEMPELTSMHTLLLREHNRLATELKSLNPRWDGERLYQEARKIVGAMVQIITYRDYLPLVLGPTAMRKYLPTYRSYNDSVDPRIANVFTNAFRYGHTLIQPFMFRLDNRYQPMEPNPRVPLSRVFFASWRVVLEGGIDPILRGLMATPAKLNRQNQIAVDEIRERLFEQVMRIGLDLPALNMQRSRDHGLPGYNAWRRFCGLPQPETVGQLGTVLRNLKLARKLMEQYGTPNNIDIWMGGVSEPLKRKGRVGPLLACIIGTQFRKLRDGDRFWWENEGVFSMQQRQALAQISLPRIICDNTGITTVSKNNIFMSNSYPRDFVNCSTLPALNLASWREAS
As to the kind of experiment: Taurine chloramine/TMB assay of HOCl production by purified myeloperoxidase with test compounds. The conditions noted are these: for [HOCl]: HOCl generated by myeloperoxidase in presence of 10 μM test compounds (DMSO 0.1%), stopped after five minutes with catalase, None = 56.2 ± 2.1; for % Inhibition: inhibition of HOCl production, 10 μM test compounds (DMSO 0.1%), negative = enhancement. The procedure:
The taurine chloramine assay of the present invention was used to detect HOCl generated by purified human myeloperoxidase. Hydrogen peroxide (100 μM) was added to 20 mM phosphate buffer pH 6.5 containing 20 nM myeloperoxidase, 100 mM NaCl and 10 mM taurine. The mixture was incubated for 15 minutes at room temperature and the reaction stopped by adding catalase (10 μg/ml). Five minutes later developing reagent was added to detect the generated taurine chloramine. The amount of taurine chloramine produced was compared to that formed by adding 100 μM HOCl to the PBST. […] The concentration of stock hydrogen peroxide was determined using E240 43.6 M^−1 cm^−1 and that of stock hypochlorite using E292 350 M^−1 cm^−1.
Hypochlorous acid was generated by myeloperoxidase in the absence or presence of 10 μM test compounds under the conditions described above for the time course experiment. Reactions were initiated by adding hydrogen peroxide and stopped five minutes later by adding catalase.

Assay [2] deals with T2, MPO (Homo sapiens, UniProt P05164).
T2 sequence (P05164 49-745): T1 sequence (P05164 49-745)
As to the kind of experiment: MPO taurine chloramine/TMB assay with catalase stop (Example 5). The procedure: Assay buffer: 20 mM sodium/potassium phosphate buffer pH 6.5 containing 10 mM taurine and 100 mM NaCl.
Developing reagent: 2 mM TMB, 200 μM KI, 200 mM acetate buffer pH 5.4 with 20% DMF.
To 10 μl of diluted compounds in assay buffer, 40 μl of MPO (final concentration 2.5 nM) was added for 10 minutes at room temperature. Then 50 μl of H2O2 (final concentration 100 μM), or assay buffer alone as a control, were added for 10 minutes at room temperature. […] Plates were mixed and subsequently read at 650 nm.

Assay [3] has as its target T2, MPO. Put plainly: In vitro MPO assay measuring HOCl production (Example 1). The arrangement: purchased Planta. The procedure: Here we describe an in vitro MPO assay that was developed to assess inhibition of enzyme activity. Essentially the MPO assay was designed to measure the production of hypochlorous acid (HOCl), which is the key physiological product generated by the enzyme in vivo. An outline of the assay reactions is given:
Compounds were preincubated with the MPO enzyme in buffer for about 15 minutes prior to start of the reaction with H2O2. The whole reaction was carried out at room temperature for 10 minutes in a 96-well plate. […] All test concentrations were done in duplicate with at least two separate determinations (n=2; unless otherwise stated). The inhibitory concentration for a compound is presented as pIC50, which is −log IC50.

The target in assay [4] is T1, purified human myeloperoxidase. Put plainly: Taurine chloramine/TMB assay of HOCl production by purified myeloperoxidase with test compounds. Particulars: catalase at 20 μg/ml.

Like-named read-outs stand apart in the source and are kept apart here.

For `Nc1ccc(Br)cc1` [p-Bromoaniline], in assay [1], the inhibition at 10 µM is 95.6% and the “[HOCl]” value is 2.5 ± 0.1 µM.

Take `COc1ccc(OC)cc1` [1,4-Dimethoxybenzene]: in assay [1], the “[HOCl]” value was found to be 15.2 ± 1.0 µM. For the same compound, the inhibition at 10 µM in assay [1] (read-out: % Inhibition) turned out to be 73%.

For `Nc1ccc(S(=O)(=O)c2ccc(N)cc2)cc1` [Dapsone], the results for the IC50 on MPO [2] (in the absence of tyrosine) and at MPO [2] (in the presence of 8 μM tyrosine) were 257 ± 73 nM and 7120 ± 610 nM, respectively. Also, the “[HOCl]” value in assay [1] turned out to be 1.8 ± 0.1 µM. In addition, in assay [1] (read-out: % Inhibition), the inhibition at 10 µM was 97%.

In turn, `COc1ccc2[nH]cc(CCO)c2c1` [5-Methoxytryptophol] had an IC50 at MPO [3] of 501 nM.

Take Catalase: the “inhibition of the formation of HOCl” value in assay [4] was found to be 90%. Moreover, in assay [1], the “[HOCl]” value is 8.8 ± 1.3 µM and the “% Inhibition” value came to 84%.

In the case of `N[C@@H](Cc1ccc(O)cc1)C(=O)O` [Tyrosine], the “[HOCl]” value in assay [1] is 107.0 ± 0.5 µM. In addition, the inhibition at 10 µM in assay [1] (read-out: % Inhibition) was -90%.

`Nc1ccc(S(=O)(=O)Nc2nccs2)cc1` [N-1(2-thiazolyl)-sulfanilamide] gave an IC50 at MPO [3] of 1000 nM.

Take `C[S+](C)[O-]` [DMSO, dimethylsulphoxide]: in assay [1], the “[HOCl]” value was found to be 52.8 ± 1.2 µM and the “% Inhibition” value amounted to 6%.
